Laboratory results published in publication PMC6364417, “Kinase inhibitor library screening identifies synergistic drug combinations effective in sensitive and resistant melanoma cells” (Journal of Experimental & Clinical Cancer Research : CR, 2019).

How the values were obtained:
Assay in all cases: Kinase inhibitor library screening, PrestoBlue cell viability, 1 or 10 μM, 72 h
[1] = system: IGR37-GP cells (Dabrafenib-resistant)
Description: (§1) After 72 h of treatment, cell viability was assessed using the PrestoBlue Cell Viability Reagent (ThermoFisher Scientific). Measurements were performed with the CLARIOstar Monochromator microplate reader (BMG Labtech).
(§2) Kinase inhibitor library screening. […] Each cell line was treated in its sensitive form (parental), and also as 2 resistant derivatives, which were made resistant to either Vemurafenib (XP) or Dabrafenib (GP). Drugs were added at 2 different concentrations, 1 and 10 μM, for 72 h and cell viability was assessed using the PrestoBlue Cell Viability assay. Results are depicted as % viability compared to untreated cells. Each cell line was analyzed at least in duplicate. […] (XLSX 95 kb)

IGR37 cells (parental) = system: IGR37 cells (parental)
Description: as §1, §2

[2] = system: A375-XP cells (Vemurafenib-resistant)
Description: as §1, §2

A375 cells (parental) = system: A375 cells (parental)
Description: as §1, §2

501Mel cells (parental) = settings: 72 h
Description: as §1, §2

[3] = system: 501Mel-XP cells (Vemurafenib-resistant); settings: 72 h
Description: as §1, §2

[4] = system: 501Mel-GP cells (Dabrafenib-resistant); settings: 72 h
Description: as §1, §2

[5] = system: A375-GP cells (Dabrafenib-resistant)
Description: as §1, §2

[6] = system: IGR37-XP cells (Vemurafenib-resistant)
Description: as §1, §2

Compound	cell viability (kinase inhibitor library screening) ([1]; IGR37 GP, 1μΜ, 72 h)	cell viability (kinase inhibitor library screening) ([1]; IGR37 GP, 10μΜ, 72 h)	cell viability (kinase inhibitor library screening) (IGR37 cells (parental); IGR37 Parental, 1μΜ, 72 h)	cell viability (kinase inhibitor library screening) (IGR37 cells (parental); IGR37 Parental, 10μΜ, 72 h)	cell viability (kinase inhibitor library screening) ([2]; A375 XP, 1μΜ, 72 h)	cell viability (kinase inhibitor library screening) ([2]; A375 XP, 10μΜ, 72 h)	cell viability (kinase inhibitor library screening) (A375 cells (parental); A375 Parental, 10μΜ, 72 h)	cell viability (kinase inhibitor library screening) (A375 cells (parental); A375 Parental, 1μΜ, 72 h)	cell viability (kinase inhibitor library screening) (501Mel cells (parental); 501Mel Parental, 1μΜ)	cell viability (kinase inhibitor library screening) (501Mel cells (parental); 501Mel Parental, 10μΜ)	cell viability (kinase inhibitor library screening) ([3]; 501Mel XP, 1μΜ)	cell viability (kinase inhibitor library screening) ([3]; 501Mel XP, 10μΜ)	cell viability (kinase inhibitor library screening) ([4]; 501Mel GP, 1μΜ)	cell viability (kinase inhibitor library screening) ([4]; 501Mel GP, 10μΜ)	cell viability (kinase inhibitor library screening) ([5]; A375 GP, 1μΜ, 72 h)	cell viability (kinase inhibitor library screening) ([5]; A375 GP, 10μΜ, 72 h)	cell viability (kinase inhibitor library screening) ([6]; IGR37 XP, 1μΜ, 72 h)	cell viability (kinase inhibitor library screening) ([6]; IGR37 XP, 10μΜ, 72 h)	also measured
C=CC(=O)Nc1ccc2ncnc(Nc3ccc(OCc4cccc(F)c4)c(Cl)c3)c2c1 [AST-1306]																			viability at 1 µM ([1]; Homo sapiens, IGR-37, 72 h, read-out: cell viability, IGR37 GP, 1μΜ): 87.4%; viability at 10 µM ([1]; Homo sapiens, IGR-37, 72 h, read-out: cell viability, IGR37 GP, 10μΜ): 2.2%; viability at 1 µM (IGR37 cells (parental); Homo sapiens, IGR-37, 72 h, read-out: cell viability, IGR37 Parental, 1μΜ): 99.8%; viability at 10 µM (IGR37 cells (parental); Homo sapiens, IGR-37, 72 h, read-out: cell viability, IGR37 Parental, 10μΜ): 1.8%; viability at 1 µM ([2]; Homo sapiens, A-375, 72 h, read-out: cell viability, A375 XP, 1μΜ): 90.9%; viability at 10 µM ([2]; Homo sapiens, A-375, 72 h, read-out: cell viability, A375 XP, 10μΜ): 0.8%; viability at 1 µM (A375 cells (parental); Homo sapiens, A-375, 72 h, read-out: cell viability, A375 Parental, 1μΜ): 95%; viability at 10 µM (A375 cells (parental); Homo sapiens, A-375, 72 h, read-out: cell viability, A375 Parental, 10μΜ): 2.9%; viability at 1 µM (501Mel cells (parental); Homo sapiens, read-out: cell viability, 501Mel Parental, 1μΜ): 94.1%; viability at 10 µM (501Mel cells (parental); Homo sapiens, read-out: cell viability, 501Mel Parental, 10μΜ): 3%; viability at 1 µM ([3]; Homo sapiens, read-out: cell viability, 501Mel XP, 1μΜ): 89.2%; viability at 10 µM ([3]; Homo sapiens, read-out: cell viability, 501Mel XP, 10μΜ): -0.162%; viability at 1 µM ([4]; Homo sapiens, read-out: cell viability, 501Mel GP, 1μΜ): 103%; viability at 10 µM ([4]; Homo sapiens, read-out: cell viability, 501Mel GP, 10μΜ): 2.3%; viability at 1 µM ([5]; Homo sapiens, A-375, 72 h, read-out: cell viability, A375 GP, 1μΜ): 85.4%; viability at 10 µM ([5]; Homo sapiens, A-375, 72 h, read-out: cell viability, A375 GP, 10μΜ): 0.6%; viability at 1 µM ([6]; Homo sapiens, IGR-37, 72 h, read-out: cell viability, IGR37 XP, 1μΜ): 72.8%; viability at 10 µM ([6]; Homo sapiens, IGR-37, 72 h, read-out: cell viability, IGR37 XP, 10μΜ): 1.1%
Clc1ccc(C2(c3ccc(-c4cn[nH]c4)cc3)CCNCC2)cc1 [AT7867]	89.7%	78.9%	98.1%	84.9%	99.3%	63.1%	58.0%	97.2%	93.0%	5.4%	81.2%	0.172%	93.8%	20.5%	82.8%	43.6%	105.4%	42.3%	
O=C(Nc1c[nH]nc1-c1nc2ccc(CN3CCOCC3)cc2[nH]1)NC1CC1 [AT9283]	97.8%	3.7%	90.9%	1.1%	38.4%	9.8%	6.2%	27.1%	67.5%	2.0%	63.4%	0.184%	72.2%	0.469%	32.2%	3.3%	82.7%	1.5%	
Cc1ccc(NC(=O)c2cccc(C(C)(C)C#N)c2)cc1Nc1ccc2ncn(C)c(=O)c2c1 [AZ628]																			Cell viability in kinase inhibitor library screening, IGR37 GP, 10μΜ ([1]; IGR37 GP, 10μΜ, 72 h): 55.7%; Cell viability in kinase inhibitor library screening, IGR37 GP, 1μΜ ([1]; IGR37 GP, 1μΜ, 72 h, in %): 78.8; Cell viability in kinase inhibitor library screening, IGR37 Parental, 1μΜ (IGR37 cells (parental); IGR37 Parental, 1μΜ, 72 h, in %): 45.5; Cell viability in kinase inhibitor library screening, IGR37 Parental, 10μΜ (IGR37 cells (parental); IGR37 Parental, 10μΜ, 72 h, in %): 41.8; Cell viability in kinase inhibitor library screening, A375 XP, 1μΜ ([2]; A375 XP, 1μΜ, 72 h): 20.4; Cell viability in kinase inhibitor library screening, A375 XP, 10μΜ ([2]; A375 XP, 10μΜ, 72 h): 13.2; Cell viability in kinase inhibitor library screening, A375 Parental, 10μΜ (A375 cells (parental); A375 Parental, 10μΜ, 72 h): 23.0; Cell viability in kinase inhibitor library screening, A375 Parental, 1μΜ (A375 cells (parental); A375 Parental, 1μΜ, 72 h): 26.2; Cell viability in kinase inhibitor library screening, 501Mel Parental, 1μΜ (501Mel cells (parental); 501Mel Parental, 1μΜ, in %): 59.7; Cell viability in kinase inhibitor library screening, 501Mel Parental, 10μΜ (501Mel cells (parental); 501Mel Parental, 10μΜ, in %): 64.1; Cell viability in kinase inhibitor library screening, 501Mel XP, 1μΜ ([3]; 501Mel XP, 1μΜ, in %): 116.3; Cell viability in kinase inhibitor library screening, 501Mel XP, 10μΜ ([3]; 501Mel XP, 10μΜ, in %): 79.0; Cell viability in kinase inhibitor library screening, 501Mel GP, 10μΜ ([4]; 501Mel GP, 10μΜ, in %): 83.3; Cell viability in kinase inhibitor library screening, A375 GP, 1μΜ ([5]; A375 GP, 1μΜ, 72 h): 19.6; Cell viability in kinase inhibitor library screening, A375 GP, 10μΜ ([5]; A375 GP, 10μΜ, 72 h): 21.0; Cell viability in kinase inhibitor library screening, IGR37 XP, 10μΜ ([6]; IGR37 XP, 10μΜ, 72 h): 15.2%; Cell viability in kinase inhibitor library screening, IGR37 XP, 1μΜ ([6]; IGR37 XP, 1μΜ, 72 h, in %): 60.5
